From article PMC10693532, “The cardiac glycoside ZINC253504760 induces parthanatos-type cell death and G2/M arrest via downregulation of MEK1/2 phosphorylation in leukemia cells” (Cell Biology and Toxicology, 2023) come the findings set out here.

Structures are written as SMILES.

One assay concerns the target T1, MEK1 (Homo sapiens, UniProt Q02750).
T1 construct: gene MAP2K1
Put plainly: microscale thermophoresis, labelled recombinant human MEK1. In kind it is binding. (In general: In MST a laser heats a spot of the sample, and binding alters the fluorescence response.)

Another assay addresses T2, MEK2 (Homo sapiens, UniProt P36507).
T2 construct: gene MAP2K2
In words: microscale thermophoresis, labelled recombinant MEK2. In kind it is binding.

T1 sequence (Q02750 whole entry): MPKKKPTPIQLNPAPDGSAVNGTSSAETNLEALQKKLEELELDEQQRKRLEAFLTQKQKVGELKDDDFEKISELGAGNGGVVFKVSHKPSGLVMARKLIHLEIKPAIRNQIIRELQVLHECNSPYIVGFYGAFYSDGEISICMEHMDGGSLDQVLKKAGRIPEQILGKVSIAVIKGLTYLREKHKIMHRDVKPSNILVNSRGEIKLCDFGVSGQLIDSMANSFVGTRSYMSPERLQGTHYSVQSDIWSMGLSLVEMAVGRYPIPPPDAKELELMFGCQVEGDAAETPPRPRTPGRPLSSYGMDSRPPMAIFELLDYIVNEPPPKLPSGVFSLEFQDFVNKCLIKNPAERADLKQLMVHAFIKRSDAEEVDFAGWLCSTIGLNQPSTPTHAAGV
T2 sequence (P36507 whole entry): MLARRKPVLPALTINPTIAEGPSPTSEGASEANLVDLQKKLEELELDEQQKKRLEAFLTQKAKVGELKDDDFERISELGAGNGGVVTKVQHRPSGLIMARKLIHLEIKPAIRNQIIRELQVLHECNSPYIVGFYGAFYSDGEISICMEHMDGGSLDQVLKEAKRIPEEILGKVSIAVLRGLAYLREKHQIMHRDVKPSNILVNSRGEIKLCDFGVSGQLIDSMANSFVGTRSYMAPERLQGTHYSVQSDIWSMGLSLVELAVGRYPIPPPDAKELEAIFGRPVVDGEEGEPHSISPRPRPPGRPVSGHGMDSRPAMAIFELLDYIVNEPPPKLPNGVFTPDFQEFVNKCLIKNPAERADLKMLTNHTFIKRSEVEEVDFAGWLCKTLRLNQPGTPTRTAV

A word on the Kd: it is the concentration at which binding is half-saturated. As to `C[C@H]1O[C@@H](O[C@@H]2[C@H](O)C[C@@H](O[C@@H]3[C@H](O)C[C@@H](O[C@H]4CC[C@@]5(C)[C@@H](CC[C@H]6[C@H]5C[C@@H](O)[C@]5(C)[C@H](C7=CC(=O)OC7)CC[C@]65O)C4)O[C@@H]3C)O[C@@H]2C)C[C@H](O)[C@@H]1O` [ZINC253504760, 3-[(3S,5S,8S,9R,10S,12R,13S,14S,17S)-3-[(2S,4R,5R,6R)-5-[(2R,4R,5R,6R)-5-[(2S,4S,5S,6R)-4,5-dihydroxy-6-methyloxan-2-yl]oxy-4-hydroxy-6-methyloxan-2-yl]oxy-4-hydroxy-6-methyloxan-2-yl]oxy-12,14-dihydroxy-10,13-dimethyl-1,2,3,4,5,6,7,8,9,11,12,15,16,17-tetradecahydrocyclopenta[a]henanthrene-17-yl]-2H-furan-5-one], the figures for the Kd on MEK1 and at MEK2 were 500 nM and 2200 nM, respectively.
